Test results reported in patent US5158947A, “Condensed heterocyclic compounds and psychopharmaceutical composition containing same” (Suntory Limited, priority 1990, dated 1992).

What was measured:
[1] = molecular target: T1, σ-receptor (Rattus norvegicus, UniProt Q9R0C9); test: Affinity to σ-receptor ([3H]3PPP binding, rat cerebra without cerebellum); set-up: species or system Wistar male rats; conditions: 3 nM [3H]3PPP, 25° C., 90 minutes; non-specific: 1 μM haloperidol; read-out: Affinity to δ-Receptor IC50
T1 construct: all of the cerebra, other than the cerebellum, of Wistar male rats; from tissue; host or cells: rat brain (cerebra without cerebellum), crude washed membranes
Procedure: The affinities of the present compounds to the […] were determined according to a method described in the "Molecular Pharmacology," Vol. 32, 772-784 (1987).
That is, 50 mM of a Tris-HCl (pH=7.7) buffer solution was added to all of the cerebra, other than the cerebellum, of Wistar male rats, followed by homogenizing for […] in a Polytson® and then centrifugally separating same at 35000 G for 10 minutes. To the resultant precipitate was added the same buffer solution as used above, and the homogenizing and the centrafugalization were repeated. This procedure was repeated once more, and to the final precipitate was added a 50 mM Tris -HCl (pH=8.0) buffer solution and the receptor having a binding capability. In the binding experiments, 3nM [^3 H] propyl-3-(3-hydroxyphenyl) piperidine (i.e., [^3 H]3PPP) was used, and as a non-specific ligand, 1 μM haloperidol was used. After incubation at 25° C. for 90 minutes, the bound ligand was recovered by filtration and the determination was carried out. The filter used was a Whatmen GF/B filter treated with 0.5% polyethylene imine.

[2] = test system: catalepsy; test: Catalepsy; type: in vivo, ddy male mice; conditions: scored after 30, 60, 90, and 120 minutes
Procedure: To ddy male mice having a body weight of about 25 g was intraperitoneally administered the present compound and the catalepsy was determined after 30, 60, 90, and 120 minutes therefrom. The score of the catalepsy was as follows.
The forelegs of the mouse were placed on an aupper edge of a 5.5 cm height box and the time until the more fulled its forelegs down from the box or the mouse jumped up onto the top of the box was measured and the score was determined based upon the following standard.

[3] = test system: locomotor hyperactivity induced by amfoneric acid; test: Inhibitory activity against locomotor hyperactivity induced by amfoneric acid; type: in vivo, ddy male mouse; conditions: Mus musculus, ip, 100 min, amfoneric acid 2.5 mg/kg s.c., total count over 100 minutes, read-out: Inhibition Rate; for inhibition in vivo at 10 mg/kg: 10 mg/kg intraperitoneal, * 0.05 > P > 0.01, ** 0.01 > P > 0.001; for inhibition in vivo at 30 mg/kg: 30 mg/kg intraperitoneal
Procedure: The inhibitory activity against locomotor hyperactivity induced by amfoneric acid of the present compounds were determined according to a method described in the "Journal of Pharmacology & Experimental Therapeuties," Vol. 239, 124-131 (1986) by R. T. Matthews et al.
That is, to a ddy male mouse having a body weight of about 25g, were simultaneously administered amfoneric acid (2.5 mg/kg, subcutaneous administration) and the present compound (intraperitoneal administration),and the amount of movement was determined using an apparatus for determining the amount of movement of a mouse. The amount of movement was determined over 100 minutes, and the test of significance thereof was effected for the total count number for 100 minutes by a Manwhitnee test. The value was indicated as the inhibition rate based, as a control, upon the group to which 2.5 mg/kg of amfoneric acid was subcutaneously administered.

T1 sequence (Q9R0C9 whole entry): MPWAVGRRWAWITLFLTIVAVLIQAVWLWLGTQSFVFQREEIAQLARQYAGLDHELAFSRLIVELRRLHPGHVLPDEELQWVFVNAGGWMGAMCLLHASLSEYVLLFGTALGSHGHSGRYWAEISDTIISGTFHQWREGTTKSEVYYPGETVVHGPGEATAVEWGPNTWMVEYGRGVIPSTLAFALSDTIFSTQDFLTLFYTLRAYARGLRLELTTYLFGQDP

SMILES | IC50 [1] [nM] | also measured
O=C1COc2ccccc2CN1CCCCN1CCC(c2ccccc2)CC1 [Example 4] | 9.22 | 
O=C(CCCN1CCC(O)(c2ccc(Cl)cc2)CC1)c1ccc(F)cc1 [Haloperidol, reference compound] |  | Catalepsy ([2]; 0.1 mg/kg intraperitoneal, control): ++ (more than 2 but less than 3)
O=C1c2ccccc2OCCN1CCCCN1CCC(c2ccccc2)CC1 [Example 1, 4-(4-(4-phenyl)-1-piperidinyl)butyl-2,3,4,5-tetrahydro-1,4-benzoxazepin-5-one] | 14.2 | 
O=C1COc2ccccc2CN1CCCCN1CCC(c2ccc(Cl)cc2)CC1 [Example 5] | 18.7 | 
O=C1c2ccccc2OCCN1CCCCN1CCC(c2ccc(Cl)cc2)CC1 [Example 2, 4-(4-(4-(4-chlorophenyl)-1-piperidinyl)butyl)-2,3,4,5-tetrahydro-1,4-benzoxazepin-5-one] | 11.7 | 
O=C1COc2ccccc2C(=O)N1CCCCN1CC=C(c2ccccc2)CC1 [Example 12, 4-(4-(4-phenyl-1,2,3,6-tetrahydro)-1-pyridyl)butyl-2,3,4,5-tetrahydro-1,4-benzoxazepine-3,5-dione] | 12.1 | 
CN1CC(=O)N(CCCCN2CCC(c3ccccc3)CC2)C(=O)c2ccccc21 [Example 21, 1-methyl-4-(4-(4-phenyl) -1-piperidinyl)butyl-2,3,4,5-tetrahydro-1,4-benzodiazepine-3,5-dione] | 13.7 | Catalepsy ([2]; 30 mg/kg intraperitoneal): - (less than 1)
O=C1CNc2ccccc2C(=O)N1CCCCN1CCC(c2ccc(Cl)cc2)CC1 [Example 19] | 16.1 | inhibition in vivo at 10 mg/kg [3]: 53%; Catalepsy ([2]; 20 mg/kg intraperitoneal): - (less than 1)
O=C1CSc2ccccc2C(=O)N1CCCCN1CCC(c2ccccc2)CC1 [Example 17, 4-(4-(4-phenyl)-1-piperidinyl)butyl-2,3,4,5-tetrahydro-1,4-benzothiazepine-3,5-dione] | 4 | 
O=C1CNc2ccccc2C(=O)N1CCCCN1CCC(c2ccccc2)CC1 [Example 18, 4-(4-(4-phenyl)-1-piperidinyl)butyl-2,3,4,5-tetrahydro-1,4-benzodiazepine-3,5-dione] | 14.1 | inhibition in vivo at 1 mg/kg ([3]; 1 mg/kg intraperitoneal, * 0.05 > P > 0.01): 65%; inhibition in vivo at 10 mg/kg [3]: 90%; Catalepsy ([2]; 10 mg/kg intraperitoneal): - (less than 1)
O=C1COc2ccccc2C(=O)N1CCCCN1CCC(c2ccccc2)CC1 [Example 8, 4-(4-(4-phenyl)-1-piperidinyl)butyl-2,3,4,5-tetrahydro-1,4-benzoxazepine-3,5-dione] | 6.61 | inhibition in vivo at 30 mg/kg ([3]; * 0.05 > P > 0.01): 73%; Catalepsy ([2]; 30 mg/kg intraperitoneal): - (less than 1)
O=C1COc2ccccc2C(=O)N1CCCCN1CCC(c2ccc(Cl)cc2)CC1 [Example 9, 4-(4-(4-(4-chlorophenyl)-1-piperidinyl)butyl)-2,3,4,5-tetrahydro-1,4-benzoxazepine-3,5-dione] | 4.73 | 
OC(CCCN1CCN(c2ncc(F)cn2)CC1)c1ccc(F)cc1 (centres unmarked) [BMY14802, reference compound] |  | inhibition in vivo at 30 mg/kg ([3]; * 0.05 > P > 0.01): 51%
O=C1COc2ccccc2C(=O)N1CCCCN1CCC(c2ccccn2)CC1 [Example 14, 4-(4-(4-(2-pyridyl)-1-piperidinyl)butyl)-2,3,4,5-tetrahydro-1,4-benzoxazepine-3,5-dione] | 17.8 | 

More lines, main results first:

IC50 [1] [nM] | SMILES | also measured
7.82 | O=C1COc2ccccc2C(=O)N1CCCCCN1CCC(c2ccc(Cl)cc2)CC1 [Example 31] | Catalepsy ([2]; 30 mg/kg intraperitoneal): - (less than 1)
10.9 | O=C1c2ccccc2OCCN1CCCCCN1CCC(c2ccccc2)CC1 [Example 26, 4-(5-(4-phenyl)-1-piperidinyl)pentyl-2,3,4,5-tetrahydro-1,4-benzoxazepin-5-one] | inhibition in vivo at 10 mg/kg [3]: 65%; Catalepsy ([2]; 30 mg/kg intraperitoneal): - (less than 1)
10.3 | O=C1COc2ccccc2CN1CCCCCN1CCC(c2ccc(Cl)cc2)CC1 [Example 29] | inhibition in vivo at 10 mg/kg [3]: 60%; Catalepsy ([2]; 30 mg/kg intraperitoneal): - (less than 1)
3.74 | O=C1CCc2ccccc2C(=O)N1CCCCN1CCC(c2ccccc2)CC1 [Example 22, 2-(4-(4-phenyl)-1-piperidinyl)butyl-1,3,4,5-tetrahydro-2-benzazepine-1,3-dione] | inhibition in vivo at 10 mg/kg [3]: 52%
4.73 | O=C1COc2ccccc2C(=O)N1CCCCCN1CCC(c2ccccc2)CC1 [Example 30, 4-(5-(4-phenyl)-1-piperidinyl)pentyl-2,3,4,5-tetrahydro-1,4-benzoxazepine-3,5-dione] | inhibition in vivo at 30 mg/kg ([3]; * 0.05 > P > 0.01): 70%; Catalepsy ([2]; 30 mg/kg intraperitoneal): - (less than 1)
10.6 | O=C1c2ccccc2OCCN1CCCCCN1CCC(c2ccc(Cl)cc2)CC1 [Example 27, 4-(5-(4-(4-chlorochenyl)1-piperidinyl)pentyl)-2,3,4,5-tetrahydro-1,4-benzoxazepin-5-one] | 
8.02 | O=C1COc2ccccc2CN1CCCCCN1CCC(c2ccccc2)CC1 [Example 28, 4-(5-(4-phenyl)-1-piperidinyl)pentyl-2,3,4,5-tetrahydro-1,4-benzoxazepin-3-one] | 
17.6 | O=C1CSc2ccccc2C(=O)N1CCCCCN1CCC(c2ccc(Cl)cc2)CC1 [Example 33] | 
8.91 | O=C1CCc2ccccc2C(=O)N1CCCCCN1CCC(c2ccc(Cl)cc2)CC1 [Example 37, 2-(5-(4-(4-chlorophenyl)-1-piperidinyl)pentyl)-1,3,4,5-tetrahydro-2-benzazepine-1,3-dione] | inhibition in vivo at 10 mg/kg [3]: 74%; Catalepsy ([2]; 30 mg/kg intraperitoneal): - (less than 1)
6.4 | O=C1CCc2ccccc2C(=O)N1CCCCN1CCC(c2ccc(Cl)cc2)CC1 [Example 23, 2-(4-(4-(4-chlorophenyl)-1-piperidinyl)butyl)-1,3,4,5-tetrahydro-2-benzazepine-1,3-dione] | 
3.62 | O=C1CCc2ccccc2C(=O)N1CCCCCN1CCC(c2ccccc2)CC1 [Example 36, 2-(5-(4-phenyl)-1-piperidinyl)pentyl-1,3,4,5-tetrahydro-2-benzazepine-1,3-dione] | 
3.95 | O=C1CSc2ccccc2C(=O)N1CCCCCN1CCC(c2ccccc2)CC1 [Example 32, 4-(5-(4-phenyl)-1-piperidinyl)pentyl-2,3,4,5-tetrahydro-1,4-benzothiazepine-3,5-dione] | 
